We go through two compounds from publication PMC3911951, “Crystal Structure of Arginine Methyltransferase 6 from Trypanosoma brucei” (PLoS ONE, 2014).

Structures are written as SMILES.

For experiment [1], the target named is T1, TbPRMT6 (Trypanosoma brucei, UniProt Q57U70).
T1 construct: gene Tb05.6E7.1000; full-length, E. coli BL21(DE3), modified pET28a, N-terminal 6xHis cut by TEV protease; 41 kDa monomer, homodimer; residues 1-24 and 228-229 disordered in crystal
T1 sequence (Q57U70 1-368): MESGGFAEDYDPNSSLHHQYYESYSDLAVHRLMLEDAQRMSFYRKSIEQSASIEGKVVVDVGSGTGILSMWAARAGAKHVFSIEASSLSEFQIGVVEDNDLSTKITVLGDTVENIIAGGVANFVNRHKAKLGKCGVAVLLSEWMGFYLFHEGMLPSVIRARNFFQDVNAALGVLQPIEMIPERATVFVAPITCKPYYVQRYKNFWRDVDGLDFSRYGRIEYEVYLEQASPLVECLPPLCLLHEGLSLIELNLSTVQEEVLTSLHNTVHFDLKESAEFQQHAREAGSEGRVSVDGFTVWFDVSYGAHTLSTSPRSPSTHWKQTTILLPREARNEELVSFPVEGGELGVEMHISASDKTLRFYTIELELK
The experiment can be described thus: in vitro methylation of Trx-H4tail, western blot for asymmetric dimethyl H4R3. To be noted: 40 uM SAM, 1 ug Trx-H4tail (bovine histone H4 residues) as co-substrate; 30 mM Tris pH 8.0, 100 mM NaCl, 1 mM EDTA, 5 mM DTT, 37 C, 12 h. In kind it is biochemical. A general note: In western blotting, separated proteins are transferred to a membrane and probed.

Experiment [2] addresses T1, TbPRMT6. The experiment is described as follows: X-ray crystal structure, […] A. Particulars: co-crystallised with three-fold molar excess SAH; 100 mM citrate pH 5.5, 20% PEG3000, 293 K; SAM-binding pocket.

On to `C[S+](CC[C@H](N)C(=O)O)C[C@H]1O[C@@H](n2cnc3c(N)ncnc32)[C@H](O)[C@@H]1O` (stereo partly drawn) [SAM, S-adenosyl-L-methionine], for which the “in vitro methylation of Trx-H4tail, western blot for asymmetric dimethyl H4R3” value at TbPRMT6 [1] was “our result also showed that TbPRMT6 can methylate bovine histone H4R3”.

As to `Nc1ncnc2c1ncn2[C@@H]1O[C@H](CSCC[C@H](N)C(=O)O)[C@@H](O)[C@H]1O` [SAH, S-adenosyl-homocysteine], on TbPRMT6 [2], the “X-ray crystal structure, 2.35 A” value was “Structures of apo-TbPRMT6 and in complex with SAH (SAH-TbPRMT6) were resolved and refined”.
